# Laboratory results from patent publication US6258785A, “Crystalline 9-E-(O-methyl)oxime of 11, 12-dideoxy-3-de(2,6-dideoxy-3-C-methyl-3-O-methyl-α-L-ribohexopyrano syloxy)-6-O-methyl-12,11-(iminocarbonyl-(2-(3-(4-(3-pyridinyl)1H-imadazol-1 -yl)propyl)hydrazono))-3-oxoerythromycin” (Pfizer Inc., priority 1999, dated 2001).
# Where a name gives a salt, the structure may show the parent alone.
# What was measured:
# [1] = type: physicochemical; settings: phosphate buffer, pH 6.5
# Experimental: Amorphous 9-E-(O-methyl)oxime of 11,12-dideoxy-3-de(2,6-dideoxy-3-C-methyl-3-O-methyl-α-L-ribohexopyranosyloxy)-6-O-methyl-12,11-(iminocarbonyl-(2-(3-(4-(3-pyridinyl)-1H-imidazol-1-yl)propyl)hydrazono))-3-oxoerythromycin (130 g) was suspended in 3L of isopropyl ether containing 3% ethanol. The suspension was heated to 60° C. overnight and stirring was continued at room temperature (about 20-25° C.) for an additional 3 days. The resulting solid was collected by filtration to give 81 g of the title compound; mp 177° C. […] The crystals were characterized by the powder X-ray diffraction pattern noted below.
# To a solution of amorphous 9-E-(O-methyl)oxime of 11,12-dideoxy-3-de(2,6-dideoxy-3-C-methyl-3-O-methyl-α-L-ribohexopyranosyloxy)-6-O-methyl-12,11-(iminocarbonyl-(2-(3-(4-(3-pyridinyl)-1H-imidazol-1-yl)propyl)hydrazono))-3-oxoerythromycin (200 mg) in 3 mL of CH2 Cl2 was added 1.19 mL of 2M solution of methanesulfonic acid in CH2 Cl2. The solution was stirred at room temperature (about 20-25° C.) for 15 minutes, and the solvent was evaporated. The residue was dissolved in 2 mL of ethyl acetate, and to this solution was added 1 mL of isopropyl ether. The solution was concentrated to approximately 0.5 mL and was left standing at room temperature (about 20-25° C.). The resulting crystals were collected by filtration to 175 mg of the title compound; mp: 193-194° C. […]
# [2] = Hygroscopicity of crystalline form; type: physicochemical; settings: crystalline hemihydrate form of the free base
water solubility of the resulting crystals [1],hygroscopicity [2],Compound
greater than 11 mg/ml,non-hygroscopic,"CC[C@H]1OC(=O)[C@H](C)C(=O)[C@H](C)[C@@H](O[C@@H]2O[C@H](C)C[C@H](N(C)C)[C@H]2O)[C@](C)(OC)C[C@@H](C)/C(=N\OC)[C@H](C)[C@H]2N(NCCCn3cnc(-c4cccnc4)c3)C(=O)N[C@]12C [Example 1, 9-E-(O-Methyl)oxime of 11,12-Dideoxy-3-de(2. 6-dideoxy-3-C-methyl-3-O-methyl-α-L-ribohexopyranosyloxy)-6-O-methyl-12,11-(iminocarbonyl-(2-(3-(4-(3-pyridinyl)-1H-imidazol-1-yl)propyl)hydrazono))-3-oxoerythromycin hemihydrate]"
24 mg/mL,–,"CC[C@H]1OC(=O)[C@H](C)C(=O)[C@H](C)[C@@H](O[C@@H]2O[C@H](C)C[C@H](N(C)C)[C@H]2O)[C@](C)(OC)C[C@@H](C)/C(=N\OC)[C@H](C)[C@H]2N(NCCCn3cnc(-c4cccnc4)c3)C(=O)N[C@]12C [Example 2, Methanesulfonic Acid Salt of 9-E-(O-Methyl)oxime of 11,12-dideoxy-3-de(2,6-dideoxy-3-C-methyl-3-O-methyl-α-L-ribohexopyranosyloxy)-6-O-methyl-12,11-(iminocarboxyl-(2-(3-(4-(3-pyridinyl)-1H-imidazol-1-yl)-propyl)hydrazo))-3-oxoerythromycin]"
